Key:
[1] = target: E3 ubiquitin-protein ligase CBL-B (Homo sapiens, UniProt Q13191); assay: Inhibition of N-terminal Avi-tagged human CBL-B (36 to 427 residues) incubated with 60 nM Src kinase for 1.5 hrs followed by incubation with fluorescently labeled UbcH5B-Ub for 1 hr and measured by TR-FRET assay; type: single protein
[2] = Induction of anti-CD3/CD28 antibodies-stimulated human T cell activation at 4 uM assessed fold increase in IL-2 secretion measured by ELISA assay; type: functional, T cell line
[3] = Induction of anti-CD3/CD28 antibodies-stimulated human T cell activation at 1 uM assessed fold increase in IL-2 secretion measured by ELISA assay; type: functional, T cell line
[4] = Induction of anti-CD3/CD28 antibodies-stimulated human T cell activation at 0.3 uM assessed fold increase in IL-2 secretion measured by ELISA assay; type: functional, T cell line
[5] = Induction of anti-CD3 antibodies-stimulated human T cell activation at 8 uM assessed fold increase in IL-2 secretion measured by ELISA assay; type: functional, T cell line; also: reference of the scale not given here
[6] = Induction of anti-CD3 antibodies-stimulated human T cell activation at 1 uM assessed fold increase in IL-2 secretion measured by ELISA assay; type: functional, T cell line; also: reference of the scale not given here
[7] = Induction of anti-CD3/CD28 antibodies-stimulated human T cell activation at 4 uM assessed fold increase in CD25 expression measured by ELISA assay; type: functional, T cell line
[8] = Induction of anti-CD3/CD28 antibodies-stimulated human T cell activation at 1 uM assessed fold increase in CD25 expression measured by ELISA assay; type: functional, T cell line
[9] = Induction of anti-CD3/CD28 antibodies-stimulated human T cell activation at 0.3 uM assessed fold increase in CD25 expression measured by ELISA assay; type: functional, T cell line
[10] = Induction of anti-CD3 antibodies-stimulated human T cell activation at 8 uM assessed fold increase in CD25 expression measured by ELISA assay; type: functional, T cell line; also: reference of the scale not given here
[11] = Induction of anti-CD3 antibodies-stimulated human T cell activation at 1 uM assessed fold increase in CD25 expression measured by ELISA assay; type: functional, T cell line; also: reference of the scale not given here

E3 ubiquitin-protein ligase CBL-B, sequence (Q13191 whole entry, the tested form may be a part): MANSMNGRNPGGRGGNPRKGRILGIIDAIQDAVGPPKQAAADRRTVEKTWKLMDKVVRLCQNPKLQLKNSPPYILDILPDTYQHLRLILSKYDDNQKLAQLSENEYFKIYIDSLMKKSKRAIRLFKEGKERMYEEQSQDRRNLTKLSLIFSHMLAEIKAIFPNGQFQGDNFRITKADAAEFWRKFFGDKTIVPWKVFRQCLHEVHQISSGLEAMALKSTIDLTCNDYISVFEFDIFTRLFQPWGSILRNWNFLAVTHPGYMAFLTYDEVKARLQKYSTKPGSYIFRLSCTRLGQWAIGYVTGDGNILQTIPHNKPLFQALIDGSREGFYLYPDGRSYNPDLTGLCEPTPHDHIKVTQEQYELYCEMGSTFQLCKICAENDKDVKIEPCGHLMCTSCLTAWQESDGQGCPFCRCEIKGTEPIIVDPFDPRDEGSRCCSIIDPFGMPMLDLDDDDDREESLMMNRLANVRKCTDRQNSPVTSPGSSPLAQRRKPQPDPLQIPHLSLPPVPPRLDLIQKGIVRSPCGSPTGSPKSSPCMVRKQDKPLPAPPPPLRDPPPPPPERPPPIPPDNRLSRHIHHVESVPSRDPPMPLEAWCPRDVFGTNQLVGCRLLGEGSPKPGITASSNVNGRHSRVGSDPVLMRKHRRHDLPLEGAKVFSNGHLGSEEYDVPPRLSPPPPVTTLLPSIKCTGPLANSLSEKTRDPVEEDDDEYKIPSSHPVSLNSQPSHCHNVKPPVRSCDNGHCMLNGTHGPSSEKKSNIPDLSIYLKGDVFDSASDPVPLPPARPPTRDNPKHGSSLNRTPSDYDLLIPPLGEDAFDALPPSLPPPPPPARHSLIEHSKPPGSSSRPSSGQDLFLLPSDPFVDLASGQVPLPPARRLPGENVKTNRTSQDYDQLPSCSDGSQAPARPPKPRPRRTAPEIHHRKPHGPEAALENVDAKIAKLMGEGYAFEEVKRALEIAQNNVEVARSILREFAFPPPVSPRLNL

IC50 [1] [nM]	SMILES	fold change (FC) [2]	fold change (FC) [3]	fold change (FC) [4]	fold change (FC) [5]	fold change (FC) [6]	fold change (FC) [7]	fold change (FC) [8]	fold change (FC) [9]	fold change (FC) [10]	fold change (FC) [11]
< 100	C[C@H](Cc1nncn1C)c1cccc(NC(=O)c2nc3c(C(F)(F)F)cccc3[nH]2)c1	>=7.5	5	2.51	>=0.201	>=0.201	>=1.76	1.51	1.01	>=1.001	>=1.001
< 100	Cn1cnnc1[C@@H]1C[C@@H]1c1cccc(N2Cc3c(cc(CN4CC[C@H](F)C4)cc3C(F)(F)F)C2=O)c1	>=7.5	>=7.5	2.51	>=0.201	>=0.201	1.51	1.31	1.31	>=1.001	>=1.001
< 100	C[C@H](Cc1nncn1C)c1cccc(NC(=O)c2cccc(C(C)(C)C)n2)c1	2.51	2.51	1.01	>=0.201	0.051	1.01	1.01	1.01	>=1.001	0.801
< 100	C[C@H](Cc1nncn1C)c1cccc(N2Cc3c(cc([C@H](C)N4CC[C@H](F)C4)cc3C(F)(F)F)C2=O)c1	>=7.5	>=7.5	>=7.5	>=0.201	>=0.201	1.31	1.31	1.31	>=1.001	>=1.001
< 100	Cn1cnnc1CC1(c2cccc(N3Cc4c(cc(CN5CC(C#N)C5)cc4C(F)(F)F)C3=O)c2)COC1	>=7.5	5	2.51	>=0.201	0.151	1.31	1.01	1.01	>=1.001	0.801
< 100	Cc1cc(C(=O)Nc2cccc(C3(Cc4nncn4C)COC3)c2)nc(C(F)(F)F)n1	>=7.5	2.51	1.01	>=0.201	0.101	1.01	1.01	1.01	>=1.001	0.801
< 100	C[C@H]1C=CCN1Cc1cc2c(c(C(F)(F)F)c1)CN(c1cccc(C3(Cc4nncn4C)COC3)c1)C2=O	>=7.5	>=7.5	>=7.5	>=0.201	>=0.201	1.51	1.51	1.31	>=1.001	>=1.001
	C[C@H](Sc1nncn1C)c1cccc(NC(=O)c2cc3cc(OCc4ccn[nH]4)ccc3cn2)c1	2.51	1.01	1.01	0.101	0.051	1.01	<=1	<=1	<=0.6	<=0.6
	C[C@H](Cc1nncn1C)c1cccc(NC(=O)c2cc(S(C)(=O)=O)cc(C3CC3)n2)c1	1.01	1.01	1.01	>=0.201	0.101	<=1	1.01	1.01	>=1.001	0.801
	COc1cc(C(=O)Nc2cccc([C@H](C)Cc3nncn3C)c2)nc(C(F)(F)F)c1	1.01	1.01	1.01	0.101	0.101	1.01	1.01	1.01	0.801	0.801
	Cc1nc(C(=O)Nc2cccc([C@H](C)Sc3nncn3C)c2)ccc1Cl	>=7.5	5	2.51	0.051	<=0.05	1.01	1.01	<=1	0.801	<=0.6
	Cc1conc1CC(C)c1cccc(N2Cc3c(cccc3C(F)(F)F)C2=O)c1 (configuration not stated)	1.01	1.01	1.01	0.051	<=0.05	1.01	1.01	1.01	0.801	0.601
	Cn1cnnc1C(F)[C@](C)(F)c1cccc(N2Cc3c(cccc3C(F)(F)F)C2=O)c1 (single isomer, unassigned)	<=1	<=1	<=1	0.051	<=0.05	1.01	<=1	<=1	0.601	<=0.6
	Cn1cnnc1[C@H](F)[C@@](C)(F)c1cccc(N2Cc3c(cc(C4CC4)cc3C(F)(F)F)C2=O)c1 (single isomer, unassigned; 482)	1.01	1.01	<=1	0.051	0.051	1.01	1.01	1.01	0.801	0.601
	C[C@H](Sc1nncn1C)c1cccc(N2Cc3c(cccc3C(F)(F)F)C2=O)c1	1.01	<=1	<=1	<=0.05	<=0.05	1.01	1.01	<=1	0.801	0.601
	Cc1cc(C(=O)Nc2cccc([C@H](C)Sc3nncn3C)c2)nc2ccccc12	2.51	1.01	1.01	0.101	0.051	1.01	1.01	1.01	0.801	0.601
	C[C@H](Sc1nncn1C)c1ccnc(NC(=O)c2cc(C3CC3)cc(C(F)(F)F)n2)c1	1.01	1.01	1.01	<=0.05	<=0.05	1.01	<=1	<=1	0.801	0.601
	C[C@H](Cc1nncn1C)c1cc(OCCO)nc(N2Cc3c(cccc3C(F)(F)F)C2=O)c1	2.51	1.01	1.01	>=0.201	0.051	1.31	1.01	1.01	>=1.001	0.601
	C[C@@H](c1cccc(N2Cc3c(cccc3C(F)(F)F)C2=O)c1)[C@H](F)c1nncn1C (relative stereo)	2.51	2.51	2.51	>=0.201	0.101	1.01	1.01	1.01	0.801	0.601
	COc1cccc(C(=O)Nc2cccc([C@H](C)Sc3nncn3C)c2)n1	2.51	1.01	1.01	0.151	0.101	1.31	<=1	<=1	0.601	<=0.6

— ChEMBL document CHEMBL5050844 (2019)
